Assay results reported in ChEMBL document CHEMBL3259764, “Pim kinase inhibitory and antiproliferative activity of a novel series of meridianin C derivatives” (Bioorg Med Chem Lett, 2014).

Key:
[1] = target: Serine/threonine-protein kinase pim-1 (Homo sapiens, UniProt P11309); assay: Inhibition of PIM1 kinase (unknown origin) using 5-FAM-labeled BAD peptide as substrate after 90 mins by fluorescence polarization assay
[2] = target: Serine/threonine-protein kinase pim-2 (Homo sapiens, UniProt Q9P1W9); assay: Inhibition of PIM2 kinase (unknown origin) using 5-FAM-labeled BAD peptide as substrate after 90 mins by fluorescence polarization assay
Chain of Serine/threonine-protein kinase pim-2 (Q9P1W9 whole entry): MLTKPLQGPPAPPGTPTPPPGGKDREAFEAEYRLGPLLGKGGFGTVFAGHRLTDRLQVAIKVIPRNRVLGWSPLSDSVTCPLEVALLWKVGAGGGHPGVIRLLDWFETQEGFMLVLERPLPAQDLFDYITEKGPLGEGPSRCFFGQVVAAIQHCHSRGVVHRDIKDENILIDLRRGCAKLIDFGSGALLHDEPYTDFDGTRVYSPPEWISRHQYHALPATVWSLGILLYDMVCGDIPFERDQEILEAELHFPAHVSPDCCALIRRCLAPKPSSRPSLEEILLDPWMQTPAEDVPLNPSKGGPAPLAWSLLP

[3] = target: Serine/threonine-protein kinase pim-3 (Homo sapiens, UniProt Q86V86); assay: Inhibition of PIM3 kinase (unknown origin) using 5-FAM-labeled BAD peptide as substrate after 90 mins by fluorescence polarization assay
[4] = Antiproliferative activity against human MV411 cells assessed as cell viability after 24 hrs by MTS assay; assay type: functional, cell-based; settings: MV4-11, 24 h
K562 = assay: Antiproliferative activity against human K562 cells assessed as cell viability after 24 hrs by MTS assay; assay type: functional, cell-based; settings: K562, 24 h
[5] = Antiproliferative activity against human Jurkat E6-1 cells assessed as cell viability after 24 hrs by MTS assay; assay type: functional, cell-based
[6] = target: CDK2/Cyclin A2 (Homo sapiens) (UniProt P24941+P20248); assay: Inhibition of CDK2/cyclinA kinase (unknown origin) at 10 uM; assay type: protein-complex assay
Caco-2 = assay: Permeability across human Caco2 cells; assay type: ADME, cell-based

Chain of Serine/threonine-protein kinase pim-1 (P11309 whole entry): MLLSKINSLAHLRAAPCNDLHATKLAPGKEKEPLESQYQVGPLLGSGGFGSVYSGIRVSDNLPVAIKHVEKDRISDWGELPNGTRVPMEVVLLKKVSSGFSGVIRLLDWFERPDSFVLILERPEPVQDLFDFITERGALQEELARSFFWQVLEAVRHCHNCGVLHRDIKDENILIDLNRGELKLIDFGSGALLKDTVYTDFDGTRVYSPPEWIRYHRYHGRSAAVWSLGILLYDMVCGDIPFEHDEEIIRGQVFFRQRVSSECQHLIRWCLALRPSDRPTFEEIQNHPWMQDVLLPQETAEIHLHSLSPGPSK

Row | Structure (SMILES) | IC50 [1] | IC50 [2] | IC50 [3] | EC50 (K562) | inhibition [6] | permeability (Caco-2) | EC50 [4] | EC50 [5]
1 | CN(C)/C=C/C(=O)c1c[nH]c2ccc(-c3cncc(OCCN(C)C)n3)cc12 | 1130 nM | – | – | – | – | – | – | –
2 | Nc1nccc(-c2c[nH]c3ccc(Br)cc23)n1 [MERIDIANIN C] | 1040 nM | – | – | – | – | – | – | –
3 | CN(C)CCOc1cncc(-c2ccc3[nH]cc(C(=O)c4ccccc4)c3c2)n1 | 400 nM | – | – | – | – | – | – | –
4 | CCN(CC)CCCOc1cncc(-c2ccc3[nH]cc(-c4ccnc(N)n4)c3c2)n1 | 34.5 nM | 660 nM | 55.7 nM | 13700 nM | – | – | 1500 nM | 10900 nM
5 | Nc1nccc(-c2c[nH]c3ccccc23)n1 | – | – | – | – | 54% | – | – | –
6 | CN(C)/C=C/C(=O)c1c[nH]c2ccc(-c3cncc(NCCN(C)C)n3)cc12 | 370 nM | – | – | – | – | – | – | –
7 | CC(=O)c1c[nH]c2ccc(-c3cncc(NCCN(C)C)n3)cc12 | 270 nM | – | – | – | – | – | – | –
8 | CN(C)CCOc1cncc(-c2ccc3[nH]cc(-c4ccnc(N)n4)c3c2)n1 | 20.4 nM | 380 nM | 21.7 nM | 18500 nM | – | – | 2900 nM | 13500 nM
9 | CN(C)CCNc1cncc(-c2ccc3[nH]cc(C(=O)C4CC4)c3c2)n1 | 270 nM | – | – | – | – | – | – | –
10 | CCOc1cncc(-c2ccc3[nH]cc(-c4ccnc(N)n4)c3c2)n1 | 45.1 nM | 740 nM | 50.9 nM | 20800 nM | – | permeable | 500 nM | 15000 nM
11 | CCN(CC)CCOc1cncc(-c2ccc3[nH]cc(-c4ccnc(N)n4)c3c2)n1 | 25.8 nM | 590 nM | 30 nM | 17900 nM | – | – | 3300 nM | 14400 nM

More lines, in order of falling IC50 [1], values ahead:

Row | IC50 [1] | IC50 [2] | IC50 [3] | EC50 (K562) | inhibition [6] | permeability (Caco-2) | Structure (SMILES) | EC50 [4] | EC50 [5]
12 | 18.7 nM | 540 nM | 20.5 nM | – | – | – | CN(C)CCCOc1cncc(-c2ccc3[nH]cc(-c4ccnc(N)n4)c3c2)n1 | – | –
13 | 18.3 nM | 630 nM | 31.3 nM | – | – | – | CN(C)CCCNc1cncc(-c2ccc3[nH]cc(-c4ccnc(N)n4)c3c2)n1 | – | –
14 | 17.2 nM | 920 nM | 30.2 nM | – | – | – | CCN(CC)CCCNc1cncc(-c2ccc3[nH]cc(-c4ccnc(N)n4)c3c2)n1 | – | –
15 | 8 nM | 180 nM | 7.8 nM | – | – | – | CN(C)CCN(C)c1cncc(-c2ccc3[nH]cc(-c4ccnc(N)n4)c3c2)n1 | – | –
16 | 3.4 nM | 110 nM | 6.5 nM | – | – | permeable | CN(C)CCNc1cncc(-c2ccc3[nH]cc(-c4ccnc(N)n4)c3c2)n1 | – | –
17 | 2.8 nM | 310 nM | 9.9 nM | – | – | – | CCN(CC)CCNc1cncc(-c2ccc3[nH]cc(-c4ccnc(N)n4)c3c2)n1 | – | –
